Test results as given in US20260070945A1, “MACROCYCLIC IMMUNOMODULATORS” (Bristol-Myers Squibb Company, priority 2022, published 2026).
*1 amine or outer side, *2 acyl side, *3 side chain or, on linkers, in order; H or OH if unused. Where a SMILES comes first, the peptide text is derived from it. Bridges are numbered along the chain shown (N, C = ends). [ ]: non-standard residue; d: D form. The star is where a group is joined. ξ: configuration not given here. Phe(3-CF3) = N[C@@H](Cc1cccc(C(F)(F)F)c1)C(=O)O; Phe(4-CF3) = N[C@@H](Cc1ccc(C(F)(F)F)cc1)C(=O)O; Ala(morpholin-4-yl) = N[C@@H](CN1CCOCC1)C(=O)O; Phe(4-COOH) = N[C@@H](Cc1ccc(C(=O)O)cc1)C(=O)O; Tyr(3-Cl) = N[C@@H](Cc1ccc(O)c(Cl)c1)C(=O)O; Bip = N[C@@H](Cc1ccc(-c2ccccc2)cc1)C(=O)O; Phe(3-Me) = Cc1cccc(C[C@H](N)C(=O)O)c1; γGlu = O=C(O)[C@H](CCC(=O)[*:2])N[*:1]; NH(CH2)12COOH = O=C(O)CCCCCCCCCCCCN*; Val(3-OH) = CC(C)(O)[C@H](N)C(=O)O; 4Pal = N[C@@H](Cc1ccncc1)C(=O)O; Cha = N[C@@H](CC1CCCCC1)C(=O)O; Cit = NC(=O)NCCC[C@H](N)C(=O)O; Ile(3ξ) = CCC(C)[C@H](N)C(=O)O; Thr(3ξ) = CC(O)[C@H](N)C(=O)O; 3Abz = Nc1cccc(C(=O)O)c1; Carboxymethyl = O=C(O)C*; NMeA = CN[C@@H](C)C(=O)O; Nle = CCCC[C@H](N)C(=O)O; Orn = NCCC[C@H](N)C(=O)O; Aun = NCCCCCCCCCCC(=O)O; Dab = NCC[C@H](N)C(=O)O; AEEA = NCCOCCOCC(=O)O

biological target: T1, PD-1/PD-L1 interaction (PE-labeled human PD-L1-Ig binding to Jurkat cell line over-expressing human PD-1) (Homo sapiens, UniProt Q15116); assay: Jurkat-PD-1 Cell Binding High-Content Screening Assay (CBA); settings: Jurkat-hPD-1 cells, PE-labeled PD-L1-Ig 20 nM final; read-out: Jurkat HPD1 PDL1 IC50
T1 construct: expressed in transfected cells; host or cells: Jurkat
In short: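 Read-out: high-content imaging of cell-bound PE fluorescence, with Hoechst 33342 nuclear counterstain after paraformaldehyde fixation. Before labeled ligand (20 nM final, 1 h) was added, compound sat on the cells for 2 h at 37 °C in DMEM/10% FCS.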

T1 sequence (Q15116 25-288): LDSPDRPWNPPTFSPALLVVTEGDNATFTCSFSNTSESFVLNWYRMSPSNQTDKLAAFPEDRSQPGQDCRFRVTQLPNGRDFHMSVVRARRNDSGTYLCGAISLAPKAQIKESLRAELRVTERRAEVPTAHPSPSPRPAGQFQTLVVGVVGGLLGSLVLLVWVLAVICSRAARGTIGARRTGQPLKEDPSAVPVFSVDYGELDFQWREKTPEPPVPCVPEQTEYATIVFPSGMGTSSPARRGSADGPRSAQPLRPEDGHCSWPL

| SMILES | IC50 |
| --- | --- |
| CC(C)C[C@H]1NC(=O)[C@H](C)N(C)C(=O)[C@H](CCCNC(N)=O)NC(=O)[C@H](Cc2ccc(-c3ccccc3)cc2)NC(=O)[C@H](Cc2ccc(C(=O)O)cc2)NC(=O)[C@H](Cc2cccc(C(F)(F)F)c2)NC(=O)[C@H](CC(=O)O)NC(=O)[C@H](Cc2ccc(OCC(=O)O)cc2)NC(=O)[C@H](CN2CCOCC2)NC(=O)CSC[C@@H](C(=O)N[C@@H](CCN)C(=O)NCCOCCOCC(=O)N[C@@H](CCC(=O)NCCOCCOCC(=O)NCCCCCCCCCCCCC(=O)O)C(=O)O)NC(=O)[C@H](CC(=O)O)NC(=O)[C@H](C(C)(C)O)NC(=O)[C@H](CC2CCCCC2)NC(=O)[C@H](CCN)NC1=O [Example 1175] ({CH2CO}-[Ala(morpholin-4-yl)]Y(Carboxymethyl)D[Phe(3-CF3)][Phe(4-COOH)][Bip][Cit][NMeA][dL][Dab][Cha][Val(3-OH)]DC[Dab][AEEA][γGlu][AEEA]-{NH(CH2)12COOH}; thioether N-14) | 0.0488 µM |
| CC(C)C[C@@H]1NC(=O)[C@H](Cc2c[nH]c3ccccc23)NC(=O)[C@H](CC(=O)O)NC(=O)[C@H](Cc2ccncc2)NC(=O)[C@H](Cc2ccc(OCC(=O)O)cc2)NC(=O)CSC[C@@H](C(=O)N[C@@H](CCCN)C(=O)NCCCCCCCCCCC(=O)O)NC(=O)[C@H](CO)NC(=O)[C@H](C(C)C)NC(=O)[C@H](CC2CCCCC2)NC(=O)[C@H](CCN)NC(=O)[C@@H](CC(C)C)NC(=O)[C@H](C)N(C)C(=O)[C@H](C(C)C)NC(=O)[C@H](Cc2ccc(-c3ccccc3)cc2)NC1=O [Example 1084] ({CH2CO}-Y(Carboxymethyl)[4Pal]DWL[Bip]V[NMeA][dL][Dab][Cha]VSC[Orn][Aun]-OH; thioether N-14) | 0.0209 µM |
| Cc1cccc(C[C@@H]2NC(=O)[C@H](CC(=O)O)NC(=O)[C@H](Cc3ccc(C(=O)O)cc3)NC(=O)[C@H](CCN)NC(=O)CSC[C@@H](C(=O)N[C@@H](CCN)C(=O)NCCCCCCCCCCC(=O)O)NC(=O)[C@H](CO)NC(=O)[C@H](C(C)(C)O)NC(=O)[C@H](CC3CCCCC3)NC(=O)[C@H](CCN)NC(=O)[C@@H](CC(C)C)NC(=O)[C@H](C)N(C)C(=O)[C@H](Cc3ccc(OCC(=O)O)cc3)NC(=O)[C@H](Cc3ccc(-c4ccccc4)cc3)NC(=O)[C@H](Cc3ccc(O)c(Cl)c3)NC2=O)c1 [Example 1293] ({CH2CO}-[Dab][Phe(4-COOH)]D[Phe(3-Me)][Tyr(3-Cl)][Bip]Y(Carboxymethyl)[NMeA][dL][Dab][Cha][Val(3-OH)]SC[Dab][Aun]-OH; thioether N-14) | 0.0358 µM |
| Cc1cccc(C[C@@H]2NC(=O)[C@H](CC(=O)O)NC(=O)[C@H](Cc3ccc(OCC(=O)O)cc3)NC(=O)[C@H](C(C)O)NC(=O)CSC[C@@H](C(=O)NCCOCCOCC(=O)NCCCCCCCCCCC(=O)O)NC(=O)[C@H](C(C)O)NC(=O)[C@H](C(C)C)NC(=O)[C@H](CC3CCCCC3)NC(=O)[C@H](CCN)NC(=O)[C@@H](CC(C)C)NC(=O)[C@H](C)N(C)C(=O)[C@H](CCCNC(N)=O)NC(=O)[C@H](Cc3ccc(-c4ccccc4)cc3)NC(=O)[C@H](C(C)C)NC2=O)c1 (stereo partly drawn) [Example 2320] ({CH2CO}-[Thr(3ξ)]Y(Carboxymethyl)D[Phe(3-Me)]V[Bip][Cit][NMeA][dL][Dab][Cha]V[Thr(3ξ)]C[AEEA][Aun]-OH; thioether N-14) | 0.0071 µM |
| CCC(C)[C@@H]1NC(=O)[C@H](Cc2ccc(-c3ccccc3)cc2)NC(=O)[C@H](C(C)C)NC(=O)[C@H](Cc2c[nH]c3ccccc23)NC(=O)[C@H](CC(=O)O)NC(=O)[C@H](Cc2ccc(OCC(=O)O)cc2)NC(=O)[C@H](C(C)O)NC(=O)CSC[C@@H](C(=O)N[C@H](CC(N)=O)C(=O)NCCOCCOCC(=O)NCCCCCCCCCCC(=O)O)NC(=O)[C@H](CCCCN)NC(=O)[C@H](C(C)C)NC(=O)[C@H](CC2CCCCC2)NC(=O)[C@H](CCN)NC(=O)[C@@H](CC(C)C)NC(=O)[C@H](C)N(C)C1=O (stereo partly drawn) [Example 2208] ({CH2CO}-[Thr(3ξ)]Y(Carboxymethyl)DWV[Bip][Ile(3ξ)][NMeA][dL][Dab][Cha]VKC[dN][AEEA][Aun]-OH; thioether N-14) | 0.0247 µM |
| CC(C)C[C@H]1NC(=O)[C@H](C)N(C)C(=O)[C@H](CCC(N)=O)NC(=O)[C@H](Cc2ccc(-c3ccccc3)cc2)NC(=O)[C@H](Cc2ccc(C(=O)O)cc2)NC(=O)[C@H](Cc2cccc(C(F)(F)F)c2)NC(=O)[C@H](CC(=O)O)NC(=O)[C@H](Cc2ccc(OCC(=O)O)cc2)NC(=O)[C@H](Cc2ccc(C(=O)O)cc2)NC(=O)CSC[C@@H](C(=O)N[C@@H](CCN)C(=O)NCCCCCCCCCCCCC(=O)O)NC(=O)[C@H](Cc2c[nH]cn2)NC(=O)[C@H](C(C)(C)O)NC(=O)[C@H](CC2CCCCC2)NC(=O)[C@H](CCN)NC1=O [Example 1145] ({CH2CO}-[Phe(4-COOH)]Y(Carboxymethyl)D[Phe(3-CF3)][Phe(4-COOH)][Bip]Q[NMeA][dL][Dab][Cha][Val(3-OH)]HC[Dab]-{NH(CH2)12COOH}; thioether N-14) | 0.0112 µM |
| CC(C)C[C@@H]1NC(=O)[C@H](Cc2c[nH]c3ccccc23)NC(=O)[C@H](CC(=O)O)NC(=O)[C@H](Cc2ccncc2)NC(=O)[C@H](Cc2ccc(OCC(=O)O)cc2)NC(=O)CSC[C@@H](C(=O)Nc2cccc(C(=O)NCCCCCCCCCCC(=O)O)c2)NC(=O)[C@H](CCN)NC(=O)[C@H](C(C)C)NC(=O)[C@H](CC2CCCCC2)NC(=O)[C@H](CCN)NC(=O)[C@@H](CC(C)C)NC(=O)[C@H](C)N(C)C(=O)[C@H](C(C)C)NC(=O)[C@H](Cc2ccc(-c3ccccc3)cc2)NC1=O [Example 1217] ({CH2CO}-Y(Carboxymethyl)[4Pal]DWL[Bip]V[NMeA][dL][Dab][Cha]V[Dab]C[3Abz][Aun]-OH; thioether N-14) | 0.238 µM |
| CC(C)C[C@@H]1NC(=O)[C@H](Cc2c[nH]c3ccccc23)NC(=O)[C@H](CC(=O)O)NC(=O)[C@H](Cc2ccccc2)NC(=O)[C@H](Cc2ccc(O)cc2)NC(=O)CSC[C@@H](C(=O)N[C@@H](CCCCN)C(=O)NCCOCCOCC(=O)NCCCCCCCCCCC(=O)O)NC(=O)[C@H](CO)NC(=O)[C@H](C(C)C)NC(=O)[C@H](CC2CCCCC2)NC(=O)[C@H](CCN)NC(=O)[C@@H](CC(C)C)NC(=O)[C@H](C)N(C)C(=O)[C@H](C(C)C)NC(=O)[C@H](Cc2ccc(-c3ccccc3)cc2)NC1=O [Example 2097] ({CH2CO}-YFDWL[Bip]V[NMeA][dL][Dab][Cha]VSCK[AEEA][Aun]-OH; thioether N-14) | 0.0948 µM |

same assay, conditions: PE-labeled PD-L1-Ig 20 nM final, Jurkat-hPD-1 cells; read-out: Jurkat HPD1 PDL1 IC50

| SMILES | IC50 |
| --- | --- |
| Cc1cccc(C[C@@H]2NC(=O)[C@H](CC(=O)O)NC(=O)[C@H](Cc3ccc(OCC(=O)O)cc3)NC(=O)[C@H](Cc3ccncc3)NC(=O)CSC[C@@H](C(=O)N[C@@H](CCN)C(=O)NCCOCCOCC(=O)NCCOCCOCC(=O)NCCCCCCCCCCC(=O)O)NC(=O)[C@H](CCC(=O)O)NC(=O)[C@H](C(C)C)NC(=O)[C@H](CC3CCCCC3)NC(=O)[C@H](CCN)NC(=O)[C@@H](CC(C)C)NC(=O)[C@H](C)N(C)C(=O)[C@H](Cc3ccc(C(=O)O)cc3)NC(=O)[C@H](Cc3ccc(-c4ccccc4)cc3)NC(=O)[C@H](Cc3ccc(C(=O)O)cc3)NC2=O)c1 [Example 2501] ({CH2CO}-[4Pal]Y(Carboxymethyl)D[Phe(3-Me)][Phe(4-COOH)][Bip][Phe(4-COOH)][NMeA][dL][Dab][Cha]VEC[Dab][AEEA][AEEA][Aun]-OH; thioether N-14) | 0.253 µM |
| CC(=O)NCCCC[C@@H]1NC(=O)[C@H](C(C)(C)O)NC(=O)[C@H](CC2CCCCC2)NC(=O)[C@H](CCN)NC(=O)[C@@H](CC(C)C)NC(=O)[C@H](C)N(C)C(=O)[C@H](CCC(N)=O)NC(=O)[C@H](Cc2ccc(-c3ccccc3)cc2)NC(=O)[C@H](Cc2ccc(C(=O)O)cc2)NC(=O)[C@H](Cc2cccc(C)c2)NC(=O)[C@H](CC(=O)O)NC(=O)[C@H](Cc2ccc(OCC(=O)O)cc2)NC(=O)[C@H](Cc2ccc(C(F)(F)F)cc2)NC(=O)CSC[C@@H](C(=O)N[C@@H](CCN)C(=O)NCCCCCCCCCCCCC(=O)O)NC1=O [Example 2619] ({CH2CO}-[Phe(4-CF3)]Y(Carboxymethyl)D[Phe(3-Me)][Phe(4-COOH)][Bip]Q[NMeA][dL][Dab][Cha][Val(3-OH)]K(Ac)C[Dab]-{NH(CH2)12COOH}; thioether N-14) | 0.0439 µM |
| CCCC[C@@H]1NC(=O)CSC[C@@H](C(=O)N[C@@H](CCN)C(=O)NCCOCCOCC(=O)NCCCCCCCCCCC(=O)O)NC(=O)[C@H](CCC(=O)O)NC(=O)[C@H](C(C)C)NC(=O)[C@H](CC2CCCCC2)NC(=O)[C@H](CCN)NC(=O)[C@@H](CC(C)C)NC(=O)[C@H](C)N(C)C(=O)[C@H](Cc2ccc(C(=O)O)cc2)NC(=O)[C@H](Cc2ccc(-c3ccccc3)cc2)NC(=O)[C@H](Cc2ccc(C(=O)O)cc2)NC(=O)[C@H](Cc2cccc(C)c2)NC(=O)[C@H](CC(=O)O)NC(=O)[C@H](Cc2ccc(C(=O)O)cc2)NC1=O [Example 2549] ({CH2CO}-[Nle][Phe(4-COOH)]D[Phe(3-Me)][Phe(4-COOH)][Bip][Phe(4-COOH)][NMeA][dL][Dab][Cha]VEC[Dab][AEEA][Aun]-OH; thioether N-14) | 0.0054 µM |
| CC(C)C[C@H]1NC(=O)[C@H](C)N(C)C(=O)[C@H](Cc2ccc(C(=O)O)cc2)NC(=O)[C@H](Cc2ccc(-c3ccccc3)cc2)NC(=O)[C@H](Cc2ccc(C(=O)O)cc2)NC(=O)[C@H](Cc2cccc(C(F)(F)F)c2)NC(=O)[C@H](CC(=O)O)NC(=O)[C@H](Cc2ccc(C(=O)O)cc2)NC(=O)[C@H](C(C)O)NC(=O)CSC[C@@H](C(=O)N[C@@H](CCN)C(=O)NCCCCCCCCCCCCC(=O)O)NC(=O)[C@H](CO)NC(=O)[C@H](C(C)(C)O)NC(=O)[C@H](CC2CCCCC2)NC(=O)[C@H](CCN)NC1=O (stereo partly drawn) [Example 2568] ({CH2CO}-[Thr(3ξ)][Phe(4-COOH)]D[Phe(3-CF3)][Phe(4-COOH)][Bip][Phe(4-COOH)][NMeA][dL][Dab][Cha][Val(3-OH)]SC[Dab]-{NH(CH2)12COOH}; thioether N-14) | 0.0228 µM |
